{
  "source": "EPA's ToxValDB 9.5 (doi:10.2903/j.efsa.2006.69r)",
  "key": {"Daphnia magna": {"system": "Daphnia magna", "conditions": "chronic/long-term; duration: 21 days"}, "Brassica rapa": {"system": "Brassica rapa", "conditions": "acute; duration: 21 days; seedling emergence"}, "Colinus virginianus": {"system": "Colinus virginianus", "conditions": "short-term; oral; diet; reproduction"}, "Pimephales promelas": {"system": "Pimephales promelas", "conditions": "chronic/long-term; duration: 32 days"}, "Rattus norvegicus": {"system": "Rattus norvegicus", "conditions": "for LD50: acute"}, "Canidae": {"system": "Canidae", "conditions": "oral, Dog Other, neurology"}, "Lepomis macrochirus": {"system": "Lepomis macrochirus", "conditions": "acute; duration: 96 hours; mortality"}, "[1]": {"conditions": "subchronic; duration: 56 days"}, "Apis mellifera": {"system": "Apis mellifera", "conditions": "acute, mortality"}, "Aphidius rhopalosiphi": {"system": "Aphidius rhopalosiphi", "assay": "LR50; higher = less toxic", "conditions": "not reported; mortality"}, "[2]": {"conditions": "short-term, oral, feed, mortality"}},
  "data": [
    {"smiles": "CNC(=O)Oc1cccc(N=CN(C)C)c1.Cl", "note": "[Formetanate hydrochloride]", "values": [
      {"measurement": "NOEC", "setting": "Daphnia magna", "value": 0.0011, "unit": "mg/L"},
      {"measurement": "LD50", "setting": "Anas platyrhynchos; acute, oral, unspecified, mortality", "value": 11.5, "unit": "mg/kg"},
      {"measurement": "NOEC", "setting": "Anas platyrhynchos; reproductive", "value": 15.6, "unit": "mg/kg-day"},
      {"measurement": "LC50", "setting": "Anas platyrhynchos; [2]", "value": 116, "unit": "mg/kg-day"},
      {"measurement": "NOEC", "setting": "Anas platyrhynchos; [2]", "value": 22.7, "unit": "mg/kg-day"},
      {"measurement": "NOEC", "setting": "Brassica rapa", "value": "> 500", "unit": "g/ha"},
      {"measurement": "NOEC", "setting": "Colinus virginianus", "value": 15.6, "unit": "mg/kg-day"},
      {"measurement": "NOEC", "setting": "Pimephales promelas", "value": 0.48, "unit": "mg/L"},
      {"measurement": "LD50", "setting": "Rattus norvegicus; oral, F, mortality", "value": 14.8, "unit": "mg/kg"},
      {"measurement": "LD50", "setting": "Rattus norvegicus; oral, M/F, mortality", "value": 21, "unit": "mg/kg"},
      {"measurement": "NOEL", "setting": "Rattus norvegicus; reproduction developmental, mortality", "value": 22.4, "unit": "mg/kg-day"},
      {"measurement": "NOAEL", "setting": "Rattus norvegicus; short-term, duration: 28 days, oral, gavage, F, clinical chemistry", "value": 0.5, "unit": "mg/kg-day"},
      {"measurement": "NOAEL", "setting": "Canidae; chronic, duration: 1 years", "value": 0.4, "unit": "mg/kg-day"},
      {"measurement": "NOAEL", "setting": "Canidae; short-term, duration: 29 days", "value": 0.4, "unit": "mg/kg-day"},
      {"measurement": "LC50", "setting": "Lepomis macrochirus", "value": 2.76, "unit": "µg/mL"},
      {"measurement": "LC50", "setting": "Tagia sp.; acute, duration: 14 days, mortality", "value": 1050, "unit": "mg/kg"},
      {"measurement": "NOEC", "setting": "Tagia sp.; chronic/long-term", "value": 1.8, "unit": "mg/kg"},
      {"measurement": "NOAEC", "setting": "[1]", "value": 0.703, "unit": "mg/L"},
      {"measurement": "LD50", "setting": "Apis mellifera; dermal", "value": 1.02, "unit": "µg/piece"},
      {"measurement": "LD50", "setting": "Apis mellifera; duration: 48 hours, oral, unspecified", "value": 0.16, "unit": "µg/piece"},
      {"measurement": "LR50", "setting": "Aphidius rhopalosiphi", "value": 0.21, "unit": "g/ha"}
    ]}
  ]
}
